The values that follow are results of earlier work, collected in paper PMC11938273 (Journal of Chemical Information and Modeling, 2025).

For this data set the following is noted: in vivo; cited from earlier work.
Turning to `CC[C@H]1OC(=O)[C@H](C)[C@@H](O[C@H]2C[C@@](C)(OC)[C@@H](O)[C@H](C)O2)[C@H](C)[C@@H](O[C@@H]2O[C@H](C)C[C@H](N(C)C)[C@H]2O)[C@](C)(OC)C[C@@H](C)C(=O)[C@H](C)[C@@H](O)[C@]1(C)O` (mixture of isomers) [Clarithromycin, rac-(3R,4S,5S,6R,7R,9R,11R,12R,13S,14R)-6-(((2S,3R,4S,6R)-4-(dimethylamino)-3-hydroxy-6-methyltetrahydro-2H-pyran-2-yl)oxy)-14-ethyl-12,13-dihydroxy-4-(((2R,4R,5S,6S)-5-hydroxy-4-methoxy-4,6-dimethyltetrahydro-2H-pyran-2-yl)oxy)-7-methoxy-3,5,7,9,11,13-hexamethyloxacyclotetradecane-2,10-dione], the CNS status entry is recorded as “Negative”.

For the compound `CCC(C)CCCC(=O)N[C@H](CCN)C(=O)N[C@@H](C(=O)N[C@H](CCN)C(=O)N[C@@H]1CCNC(=O)[C@H]([C@H](C)O)NC(=O)[C@@H](CCN)NC(=O)[C@@H](CCN)NC(=O)[C@@H](CC(C)C)NC(=O)[C@H](CC(C)C)NC(=O)[C@@H](CCN)NC1=O)[C@H](C)O` (mixture of isomers) [Colistin, rac-N-((R)-4-amino-1-(((2R,3S)-1-(((R)-4-amino-1-oxo-1-(((3S,6R,9R,12R,15S,18R,21R)-6,9,18-tris(2-aminoethyl)-3-((S)-1-hydroxyethyl)-12,15-diisobutyl-2,5,8,11,14,17,20-heptaoxo-1,4,7,10,13,16,19-heptaazacyclotricosan-21-yl)amino)butan-2-yl)amino)-3-hydroxy-1-oxobutan-2-yl)amino)-1-oxobutan-2-yl)-5-methylheptanamide], the CNS status entry is on record as “Negative”.

As to `C[C@@H](CN1CC(=O)NC(=O)C1)N1CC(=O)NC(=O)C1` (racemic) [Dexrazoxane, rac-(R)-4,4'-(propane-1,2-diyl)bis(piperazine-2,6-dione)], the CNS status entry is recorded as “Negative”.

`C[C@H](N)[C@H](O)c1cccc(O)c1` (racemic) [Metaraminol, rac-3-((1R,2S)-2-amino-1-hydroxypropyl)phenol]: the CNS status entry is “Negative”.

`CC(C)CCCCC(=O)N[C@@H](CCN)C(=O)N[C@H](C(=O)N[C@@H](CCN)C(=O)N[C@H]1CCNC(=O)[C@H]([C@@H](C)O)NC(=O)[C@H](CCN)NC(=O)[C@H](CCN)NC(=O)[C@H](CC(C)C)NC(=O)[C@@H](Cc2ccccc2)NC(=O)[C@H](CCN)NC1=O)[C@@H](C)O` (racemic) [Polymyxin B2, rac-N-((R)-4-amino-1-(((2R,3S)-1-(((R)-4-amino-1-oxo-1-(((3R,6R,9R,12R,15S,18R,21R)-6,9,18-tris(2-aminoethyl)-15-benzyl-3-((S)-1-hydroxyethyl)-12-isobutyl-2,5,8,11,14,17,20-heptaoxo-1,4,7,10,13,16,19-heptaazacyclotricosan-21-yl)amino)butan-2-yl)amino)-3-hydroxy-1-oxobutan-2-yl)amino)-1-oxobutan-2-yl)-6-methylheptanamide]: the CNS status entry is “Negative”.

Consider `COC(=O)[C@H](c1ccccc1)[C@H]1CCCCN1` (racemic) [Ritalin, rac-methyl (R)-2-phenyl-2-((R)-piperidin-2-yl)acetate], for which the CNS status entry is on record as “Positive”.

As to `COC(=O)[C@H]1[C@@H](c2ccc(I)cc2)C[C@@H]2CC[C@H]1N2CCCF` (racemic) [beta-CIT-FP, rac-methyl(1R,2S,3S,5S)-8-(3-fluoropropyl)-3-(4-iodophenyl)-8-azabicyclo[3.2.1]octane-2-carboxylate], the CNS status entry is listed as “Positive”.

Turning to `C[N+]1(CC2CC2)CC[C@]23c4c5ccc(O)c4O[C@H]2C(=O)CC[C@@]3(O)C1C5` (stereo in doubt) [Methylnaltrexone bromide, (3S,4S,4aS,7aR,12bS)-3-(cyclopropylmethyl)-4a,9-dihydroxy-3-methyl-7-oxo-2,3,4,4a,5,6,7,7a-octahydro-1H-4,12-methanobenzofuro[3,2-e]isoquinolin-3-ium], the CNS status entry is on record as “Negative”.
